According to ChEMBL document CHEMBL1150018, “New reagents for controlled release of nitric oxide. Structure-stability relationships” (Bioorg Med Chem Lett, 1996):

How the values were obtained:
Assay type in all cases: ADME
[1] = Half life was determined; settings: rat
[2] = Kinetic constant log k was determined
[3] = Rate of decomposition in aqueous solution (pH 8.0, 30 degree Celsius) at 107 min; settings: buffer, pH 8, 107 min
[4] = Rate of decomposition in aqueous solution(pH 8.0, 30 degree Celsius)at 350 min; settings: buffer, pH 8, 350 min
[5] = Rate of decomposition in aqueous solution (pH 8.0, 30 degree Celsius) at 150 min; settings: buffer, pH 8, 2.5 h
[6] = Rate of decomposition in aqueous solution (pH 8.0, 30 degree Celsius) at 87 min; settings: buffer, pH 8, 1.45 h
[7] = Rate of decomposition in aqueous solution (pH 8.0, 30 degree Celsius) at 84 min; settings: buffer, pH 8, 1.4 h
[8] = Rate of decomposition in aqueous solution (pH 8.0, 30 degree Celsius) at 2.6 min; settings: buffer, pH 8, 156 s
[9] = Rate of decomposition in aqueous solution (pH 8.0, 30 degree Centigrade) at 5.3 min; settings: buffer, pH 8, 318 s
[10] = Rate of decomposition in aqueous solution (pH 8.0, 30 degree Celsius) at 46 min; settings: buffer, pH 8, 46 min
[11] = Rate of decomposition in aqueous solution (pH 8.0, 30 degree Celsius) at 35 min; settings: buffer, pH 8, 35 min
[12] = Rate of decomposition in aqueous solution (pH 8.0, 30 degree Celsius) at 1500 min; settings: buffer, pH 8, 25 h
[13] = Rate of decomposition in aqueous solution (pH 8.0, 30 degree Celsius) at 690 min; settings: buffer, pH 8, 11.5 h
[14] = Rate of decomposition in aqueous solution (pH 8.0, 30 degree Celsius) at 350 min; settings: buffer, pH 8, 350 min
[15] = Rate of decomposition in aqueous solution (pH 8.0, 30 degree Celsius) at 190 min; settings: buffer, pH 8, 190 min
[16] = Rate of decomposition in aqueous solution (pH 8.0, 30 degree Celsius) at 86 min; settings: buffer, pH 8, 86 min
[17] = Rate of decomposition in aqueous solution (pH 8.0, 30 degree Celsius) at 580 min; settings: buffer, pH 8, 580 min
[18] = Rate of decomposition in aqueous solution (pH 8.0, 30 degree Celsius) at 1800 min; settings: buffer, pH 8, 30 h
[19] = Rate of decomposition in aqueous solution (pH 8.0, 30 degree Celsius) at 2900 min; settings: buffer, pH 8, 2900 min
[20] = Rate of decomposition in aqueous solution (pH 8.0, 30 degree Celsius) at 270 min; settings: buffer, pH 8, 4.5 h

Row | Compound | half-life [1] | Log k [2] | other results
1 | O=C(NCC(/C=C1\CCCCC1[N+](=O)[O-])=N\O)c1cccnc1 (stereo unspecified) | 84 min | – | k [7]: 0.0083 min⁻¹
2 | COCC(/C(C)=C/C(=N/O)C(N)=O)[N+](=O)[O-] (stereo unspecified) | 2.6 min | 0.569 | k [8]: 0.27 min⁻¹
3 | COCC(/C(C)=C/C(CNC(=O)c1cccnc1)=N/O)[N+](=O)[O-] (stereo unspecified) | 5.3 min | -0.886 | k [9]: 0.13 min⁻¹
4 | NC(=O)C(/C=C1\CCCCC1[N+](=O)[O-])=N\O (stereo unspecified) | 35 min | – | k [11]: 0.02 min⁻¹
5 | CC/C(=C\C(CNC(C)=O)=N\O)C(C(C)C)[N+](=O)[O-] (stereo unspecified) | 1500 min | -3.337 | k [12]: 0.00046 min⁻¹
6 | CC(C)/C(=C\C(=N\O)C(N)=O)C(C)[N+](=O)[O-] (stereo unspecified) | 190 min | -2.432 | k [15]: 0.0037 min⁻¹
7 | CC(C)/C(=C\C(CNC(=O)c1cccnc1)=N\O)C(C)[N+](=O)[O-] (stereo unspecified) | 580 min | -2.921 | k [17]: 0.0012 min⁻¹
8 | CC/C(=C\C(CNC(=O)c1cccnc1)=N\O)C(C(C)C)[N+](=O)[O-] (stereo unspecified) | 1800 min | -3.42 | k [18]: 0.00038 min⁻¹
9 | CC/C(=C\C(=N\O)C(N)=O)C([N+](=O)[O-])C(C)(C)C (stereo unspecified) | 2900 min | -3.62 | k [19]: 0.00024 min⁻¹

Further lines, with some results ahead:

Row | half-life [1] | Log k [2] | Compound | other results
10 | 107 min | -2.187 | CC/C(=C\C(CNC(=O)c1cccnc1)=N\O)C(C)[N+](=O)[O-] (stereo unspecified) | k [3]: 0.0065 min⁻¹
11 | 350 min | -2.699 | CCC(/C(C)=C/C(CNC(=O)c1cccnc1)=N/O)[N+](=O)[O-] (stereo unspecified) | k [4]: 0.002 min⁻¹
12 | 150 min | -2.347 | CC/C(=C\C(=N\O)C(N)=O)C(CC)[N+](=O)[O-] (stereo unspecified) | k [5]: 0.0045 min⁻¹
13 | 87 min | – | CC(=O)NCC(/C=C1\CCCCC1[N+](=O)[O-])=N\O (stereo unspecified) | k [6]: 0.008 min⁻¹
14 | 46 min | -1.824 | CC/C(=C\C(=N\O)C(N)=O)C(C)[N+](=O)[O-] (stereo unspecified) | k [10]: 0.00025 s⁻¹
15 | 690 min | -3 | CC/C(=C\C(=N\O)C(N)=O)C(C(C)C)[N+](=O)[O-] (stereo unspecified) | k [13]: 0.001 min⁻¹
16 | 350 min | -2.699 | CC/C(=C\C(CNC(=O)c1cccnc1)=N\O)C(CC)[N+](=O)[O-] (stereo unspecified) | k [14]: 0.002 min⁻¹
17 | 86 min | -2.092 | CC/C(=C\C(CNC(C)=O)=N\O)C(C)[N+](=O)[O-] (stereo unspecified) | k [16]: 0.0081 min⁻¹
18 | 270 min | -2.585 | CC/C(=C\C(CNC(C)=O)=N\O)C(CC)[N+](=O)[O-] (stereo unspecified) | k [20]: 0.0026 min⁻¹
